Experimental data from paper PMC6348381, “Discovery of an MLLT1/3 YEATS Domain Chemical Probe” (Angewandte Chemie (International Ed. in English), 2018).

Assays:
[1] = target: T1, BAZ1B (Homo sapiens, UniProt Q9UIG0); assay: Thermal shift assay, BAZ1B; assay type: binding
T1 construct: purchased in-house (SGC bromodomain thermal shift / AlphaScreen panel)
T1 sequence (Q9UIG0 1-1483): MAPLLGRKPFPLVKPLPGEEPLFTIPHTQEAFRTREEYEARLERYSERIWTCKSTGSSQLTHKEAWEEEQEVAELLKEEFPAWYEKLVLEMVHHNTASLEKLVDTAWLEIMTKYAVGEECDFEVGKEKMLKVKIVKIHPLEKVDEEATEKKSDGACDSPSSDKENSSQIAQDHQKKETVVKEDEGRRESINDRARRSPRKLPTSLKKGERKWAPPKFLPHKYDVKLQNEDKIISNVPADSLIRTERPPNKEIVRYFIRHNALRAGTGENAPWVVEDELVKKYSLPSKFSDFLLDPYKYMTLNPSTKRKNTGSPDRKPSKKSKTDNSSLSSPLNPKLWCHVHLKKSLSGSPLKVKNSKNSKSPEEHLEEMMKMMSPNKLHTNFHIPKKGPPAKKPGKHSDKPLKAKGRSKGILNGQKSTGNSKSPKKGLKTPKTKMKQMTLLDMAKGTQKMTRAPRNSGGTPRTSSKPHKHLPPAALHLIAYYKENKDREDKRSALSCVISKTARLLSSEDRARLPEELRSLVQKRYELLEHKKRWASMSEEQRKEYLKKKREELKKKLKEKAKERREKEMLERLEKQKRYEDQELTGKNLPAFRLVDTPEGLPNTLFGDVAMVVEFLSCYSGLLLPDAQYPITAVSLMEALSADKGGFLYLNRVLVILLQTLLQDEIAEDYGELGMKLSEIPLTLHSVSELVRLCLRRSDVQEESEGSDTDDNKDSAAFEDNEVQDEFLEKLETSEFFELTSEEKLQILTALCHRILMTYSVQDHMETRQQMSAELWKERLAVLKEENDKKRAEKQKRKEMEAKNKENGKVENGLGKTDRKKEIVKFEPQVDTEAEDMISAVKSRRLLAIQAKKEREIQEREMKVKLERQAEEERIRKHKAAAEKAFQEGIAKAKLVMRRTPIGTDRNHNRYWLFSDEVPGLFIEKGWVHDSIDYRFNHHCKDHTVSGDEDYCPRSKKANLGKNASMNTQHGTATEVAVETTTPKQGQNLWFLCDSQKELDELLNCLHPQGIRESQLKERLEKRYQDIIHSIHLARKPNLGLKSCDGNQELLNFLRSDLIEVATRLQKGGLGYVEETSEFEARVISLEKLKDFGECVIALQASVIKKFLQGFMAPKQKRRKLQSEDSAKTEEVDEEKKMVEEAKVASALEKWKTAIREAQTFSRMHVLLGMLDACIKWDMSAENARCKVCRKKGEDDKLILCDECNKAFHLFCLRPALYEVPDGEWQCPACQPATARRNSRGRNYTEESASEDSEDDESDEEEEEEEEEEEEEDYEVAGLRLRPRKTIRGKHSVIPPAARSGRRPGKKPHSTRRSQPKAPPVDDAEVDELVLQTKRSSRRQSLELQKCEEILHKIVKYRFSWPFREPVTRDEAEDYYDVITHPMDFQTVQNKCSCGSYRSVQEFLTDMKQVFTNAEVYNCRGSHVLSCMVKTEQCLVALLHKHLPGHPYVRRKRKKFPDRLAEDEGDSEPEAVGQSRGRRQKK
Protocol: (§1) II.VII Thermal Shift Assay[6]
(§2) Thermal melting experiments were carried out using an Mx3005p Real Time PCR machine (Stratagene). Proteins were buffered in 10 mM HEPES pH 7.5, 500 mM NaCl and assayed in a 96-well plate at a final concentration of 2 μM in 20 μL volume. Compounds were added at a final concentration of 50 μM. SYPRO Orange (Molecular Probes) was added as a fluorescence probe at a dilution of 1:1000. Excitation and emission filters for the SYPRO-Orange dye were set to 465 nm and 590 nm, respectively. The temperature was raised with a step of 3 °C per minute from 25 °C to 96 °C and fluorescence readings were taken at each interval. The unfolding curves were fitted using the Boltzmann equation to determine the middle point of the transition.

[2] = target: T2, BRPF1A (Homo sapiens, UniProt P55201); assay: Thermal shift assay, BRPF1A; assay type: binding
T2 construct: purchased in-house (SGC bromodomain thermal shift / AlphaScreen panel)
T2 sequence (P55201 1-1220 isoform P55201-2): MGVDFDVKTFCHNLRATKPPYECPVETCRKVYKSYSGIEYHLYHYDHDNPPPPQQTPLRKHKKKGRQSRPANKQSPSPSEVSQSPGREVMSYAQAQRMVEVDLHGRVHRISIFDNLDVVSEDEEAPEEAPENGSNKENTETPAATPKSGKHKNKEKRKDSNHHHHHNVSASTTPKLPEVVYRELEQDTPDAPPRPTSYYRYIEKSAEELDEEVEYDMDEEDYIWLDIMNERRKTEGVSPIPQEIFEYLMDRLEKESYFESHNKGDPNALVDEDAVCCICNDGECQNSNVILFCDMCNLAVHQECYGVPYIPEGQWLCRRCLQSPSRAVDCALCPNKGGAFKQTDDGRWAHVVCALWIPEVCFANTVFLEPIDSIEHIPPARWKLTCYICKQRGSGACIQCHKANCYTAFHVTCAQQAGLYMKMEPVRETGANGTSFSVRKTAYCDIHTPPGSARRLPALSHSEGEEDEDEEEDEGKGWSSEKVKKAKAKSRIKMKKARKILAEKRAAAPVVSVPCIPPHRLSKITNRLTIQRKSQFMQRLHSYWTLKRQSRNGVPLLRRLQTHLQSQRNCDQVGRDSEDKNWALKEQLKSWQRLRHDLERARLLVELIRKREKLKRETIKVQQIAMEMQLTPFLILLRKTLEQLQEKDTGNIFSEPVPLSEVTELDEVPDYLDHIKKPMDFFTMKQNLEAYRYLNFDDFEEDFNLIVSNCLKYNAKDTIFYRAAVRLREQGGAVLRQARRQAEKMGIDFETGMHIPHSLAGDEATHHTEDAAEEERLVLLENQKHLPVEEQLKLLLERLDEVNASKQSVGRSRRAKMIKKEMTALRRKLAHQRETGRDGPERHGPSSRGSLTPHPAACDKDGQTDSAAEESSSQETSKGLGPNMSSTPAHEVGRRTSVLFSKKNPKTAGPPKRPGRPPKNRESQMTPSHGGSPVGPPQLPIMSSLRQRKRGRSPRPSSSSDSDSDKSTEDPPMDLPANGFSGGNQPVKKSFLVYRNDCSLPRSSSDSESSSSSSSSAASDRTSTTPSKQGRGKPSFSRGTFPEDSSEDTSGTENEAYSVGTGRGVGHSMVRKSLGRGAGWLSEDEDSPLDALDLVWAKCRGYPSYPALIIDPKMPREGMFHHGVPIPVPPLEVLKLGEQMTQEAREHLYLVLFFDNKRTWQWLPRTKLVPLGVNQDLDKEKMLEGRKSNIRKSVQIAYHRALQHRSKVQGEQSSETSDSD
Protocol: as §1, §2

Row | Thermal stabilisation, BAZ1B ([1]; 10 µM compound concentration) | Thermal stabilisation, BRPF1A ([2]; 10 µM compound concentration) | SMILES | Thermal stabilisation, BAZ1B ([1]; 50 μM compound) | Thermal stabilisation, BRPF1A ([2]; 50 μM compound)
1 |  |  | COC(=O)c1ccc(C(=O)Nc2ccc3[nH]c(CN4CCCCC4)nc3c2)cc1 [Compound 1] | 1.03 | -1.045
2 |  |  | C[C@H]1CCCN1Cc1nc2cc(NC(=O)c3ccc4c(cnn4C)c3)ccc2[nH]1 [Compound 92] | -0.19 | -1.305
3 | -0.23 | 0.145 | CCOC(=O)Nc1cc(-c2ccc(C)c(NS(C)(=O)=O)c2)nn2c(C)nnc12 [Bromosporine, reference compound] |  | 
